Each block holds one compound with its values, some of them ahead of it. Active and inactive are the calls of the source.
Assays:
[1] = target: Dual specificity protein phosphatase 3 (Homo sapiens, UniProt P51452); experiment: SAR VHR1 Fluorescent Assay for In Vitro dose response studies Set 2. [Related pubchem assays (depositor defined):AID1654, AID1661, AID1878]; type: functional
[2] = target: T1, Tyrosine-protein phosphatase non-receptor type 7 (Homo sapiens, UniProt P35236); experiment: SAR analysis of chemical inhibitors of HePTP using a Fluorescent assay - Set 2. [Related pubchem assays (depositor defined):AID1059, AID1077, AID1661, AID2085, AID521]; type: functional
T1 sequence (P35236 whole entry): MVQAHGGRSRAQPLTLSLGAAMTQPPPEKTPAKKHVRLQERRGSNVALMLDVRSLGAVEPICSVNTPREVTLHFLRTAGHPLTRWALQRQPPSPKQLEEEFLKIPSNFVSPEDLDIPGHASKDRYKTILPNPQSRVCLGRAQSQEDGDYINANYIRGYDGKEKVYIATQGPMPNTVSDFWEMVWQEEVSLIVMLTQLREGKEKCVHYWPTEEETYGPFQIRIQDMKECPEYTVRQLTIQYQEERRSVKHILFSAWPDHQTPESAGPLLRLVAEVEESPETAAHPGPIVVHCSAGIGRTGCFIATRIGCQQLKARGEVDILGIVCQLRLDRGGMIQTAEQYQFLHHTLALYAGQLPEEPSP

[3] = target: Delta-type opioid receptor (Homo sapiens, UniProt P41143); experiment: SAR Analysis of Antagonists of the DOR Receptor using an Image-Based Assay - Set 3. [Related pubchem assays (depositor defined):AID1777, AID1785]; type: functional;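 further: U2OS cells expressing DOR1 and beta-arrestin GFP stimulated with 100 nM SNC80; imaging of GFP-tagged beta-arrestin moving into spots after receptor activation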
[4] = target: T2, Kappa-type opioid receptor (Homo sapiens, UniProt P41145); experiment: SAR analysis of small molecule antagonists of the kappa opioid receptor via a luminescent beta-arrestin assay - Set 3. [Related pubchem assays (depositor defined):AID1777, AID1778, AID1785, AID1786, AID1966, AID2133, AID2136, AID2285, AID2495]; type: functional
[5] = target: T2, Kappa-type opioid receptor; experiment: SAR analysis of Antagonists of the Kappa Opioid Receptor (KOR) using an Image-Based Assay - Set 4. [Related pubchem assays (depositor defined):AID1777, AID1785]; type: functional
Mu-type opioid receptor = Mu-type opioid receptor (Homo sapiens, UniProt P35372); experiment: SAR Analysis of Antagonists of the MOR Receptor using an Image-Based Assay - Set 3. [Related pubchem assays (depositor defined):AID1777, AID1785, AID1786, AID1966, AID2133, AID2136, AID2284, AID2285, AID2420]; type: functional
[6] = target: T3, Runt-related transcription factor 1/Core-binding factor subunit beta (Homo sapiens, UniProt Q01196+Q13951); experiment: disruptors of Runt domain/CBFb-SMMHC interaction – biochemical, FRET, Cerulean-Runt, Venus-CBFb-SMMHC, uHTS, […] (AID 1434); type: protein assay
Fatty acid synthase [7] = target: T4, Fatty acid synthase (Homo sapiens, UniProt P49327); experiment: inhibition of human FAS-TE enzyme activity – biochemical, endpoint fluorescence intensity, uHTS hits, dose response (AID 624327); type: functional;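 further: fluorescence from hydrolysis of an O-methyl fluorescein acyl ester substrate by the enzyme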
[8] = target: T3, Runt-related transcription factor 1/Core-binding factor subunit beta; experiment: Runt domain/CBFb-SMMHC interaction disruptors – biochemical, TR-FRET (AID 1438); type: protein assay
Fatty acid synthase [9] = target: T4, Fatty acid synthase; experiment: inhibition of human FAS-TE enzyme activity – biochemical, kinetic fluorescence intensity, dose response (AID 624326); type: functional;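 further: rate of fluorescence rise from hydrolysis of a fluorogenic O-methyl fluorescein ester substrate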
Integrin alpha-L = Integrin alpha-L (Mus musculus, UniProt P24063); experiment: modulators of CD8 T cell-vesicle binding, dose response, powder samples, mouse 2C CD8+ cells (AID 504565); type: functional
T-cell = experiment: loss of vesicle association with mouse CD8+ T cells – mouse 2C CD8+ T cells, flow cytometry, dose response (AID 485284); type: functional
cells [10] = type: functional, cell-based
cells [11] = type: functional, cell-based; remark: listed apart in the source
HEK293 [12] = experiment: inhibition of NOD1-driven NF-kB reporter – cell-based, luminescence, uHTS, primary screen (AID 1578); type: functional; details: Homo sapiens
Mucolipin-3 = Mucolipin-3 (Homo sapiens, UniProt Q8TDD5); experiment: Fluorescence counterscreen assay for […] agonists: dose response cell-based high-throughput screening assay to identify agonists of the transient receptor potential channel ML3 (TRPML3). [Related pubchem assays: 1424, 1448 ]; type: functional
[13] = NIH3T3 cell viability loss – ATP luminescence, mouse fibroblasts, counter-screen, dose response (AID 2010); type: functional, cell-based;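 further: cells exposed to compound for about 90 hours before reading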
HEK293 [14] = experiment: NOD2 signaling inhibitors in MDP-stimulated cells, cell-based, uHTS, luminescence (AID 2001); type: functional; details: Homo sapiens
[15] = target: T5, Calpain-2 catalytic subunit (Sus scrofa, UniProt P43367); experiment: m-calpain protease blockers, concentration series – biochemical, fluorogenic peptide substrate, dose response (AID 1420); type: functional
T5 sequence (P43367 whole entry): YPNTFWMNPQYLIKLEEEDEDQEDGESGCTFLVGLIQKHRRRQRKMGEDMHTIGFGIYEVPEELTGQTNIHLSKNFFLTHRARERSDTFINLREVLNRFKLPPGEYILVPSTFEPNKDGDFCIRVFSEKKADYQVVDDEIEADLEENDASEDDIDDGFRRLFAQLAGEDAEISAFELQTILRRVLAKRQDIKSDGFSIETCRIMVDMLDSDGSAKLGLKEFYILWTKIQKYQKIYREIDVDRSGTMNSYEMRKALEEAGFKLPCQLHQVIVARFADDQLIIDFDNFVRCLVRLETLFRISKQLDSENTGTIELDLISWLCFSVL

Ion channel NompC = Ion channel NompC (Danio rerio, UniProt Q7T1G6); experiment: Dose response cell-based high-throughput screening assay for agonists of the transient receptor potential channel N1 (TRPN1). [Related pubchem assays (depositor defined):AID1424, AID1448]; type: functional
HEK293 [16] = experiment: cells; type: functional, cell-based; details: Homo sapiens
HEK293 [17] = experiment: cells; type: functional, cell-based; details: Homo sapiens; remark: listed apart in the source
[18] = Trypanosoma cruzi growth suppression in host cells – NIH3T3 host cells, beta-gal luminescence, confirmation (AID 2044); type: functional, cell-based;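 further: intracellular parasites grown in NIH/3T3 mouse fibroblasts as host cells; luminescent beta-galactosidase reporter signal from transgenic T. cruzi replicating inside host cells; inhibitors lower the luminescence signal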

T3 sequence (Q01196 whole entry, the tested form may be a part): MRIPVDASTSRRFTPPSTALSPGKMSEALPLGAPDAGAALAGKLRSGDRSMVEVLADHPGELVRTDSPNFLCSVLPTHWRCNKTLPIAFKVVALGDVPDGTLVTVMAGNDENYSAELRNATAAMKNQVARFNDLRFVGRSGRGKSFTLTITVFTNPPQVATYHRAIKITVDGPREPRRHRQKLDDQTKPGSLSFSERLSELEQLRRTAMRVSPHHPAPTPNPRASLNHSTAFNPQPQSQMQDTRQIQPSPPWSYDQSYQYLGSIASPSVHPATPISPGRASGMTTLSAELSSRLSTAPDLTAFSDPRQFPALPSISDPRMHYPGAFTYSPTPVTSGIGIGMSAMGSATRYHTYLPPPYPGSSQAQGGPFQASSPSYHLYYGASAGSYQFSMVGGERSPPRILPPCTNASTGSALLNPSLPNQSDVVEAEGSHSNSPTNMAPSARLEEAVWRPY
T3 sequence (Q13951 whole entry, the tested form may be a part): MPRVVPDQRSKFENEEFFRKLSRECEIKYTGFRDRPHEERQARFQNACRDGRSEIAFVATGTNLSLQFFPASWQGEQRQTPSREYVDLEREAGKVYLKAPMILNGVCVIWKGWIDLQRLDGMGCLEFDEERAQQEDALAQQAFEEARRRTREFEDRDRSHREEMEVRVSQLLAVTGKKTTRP
T4 sequence (P49327 whole entry, the tested form may be a part): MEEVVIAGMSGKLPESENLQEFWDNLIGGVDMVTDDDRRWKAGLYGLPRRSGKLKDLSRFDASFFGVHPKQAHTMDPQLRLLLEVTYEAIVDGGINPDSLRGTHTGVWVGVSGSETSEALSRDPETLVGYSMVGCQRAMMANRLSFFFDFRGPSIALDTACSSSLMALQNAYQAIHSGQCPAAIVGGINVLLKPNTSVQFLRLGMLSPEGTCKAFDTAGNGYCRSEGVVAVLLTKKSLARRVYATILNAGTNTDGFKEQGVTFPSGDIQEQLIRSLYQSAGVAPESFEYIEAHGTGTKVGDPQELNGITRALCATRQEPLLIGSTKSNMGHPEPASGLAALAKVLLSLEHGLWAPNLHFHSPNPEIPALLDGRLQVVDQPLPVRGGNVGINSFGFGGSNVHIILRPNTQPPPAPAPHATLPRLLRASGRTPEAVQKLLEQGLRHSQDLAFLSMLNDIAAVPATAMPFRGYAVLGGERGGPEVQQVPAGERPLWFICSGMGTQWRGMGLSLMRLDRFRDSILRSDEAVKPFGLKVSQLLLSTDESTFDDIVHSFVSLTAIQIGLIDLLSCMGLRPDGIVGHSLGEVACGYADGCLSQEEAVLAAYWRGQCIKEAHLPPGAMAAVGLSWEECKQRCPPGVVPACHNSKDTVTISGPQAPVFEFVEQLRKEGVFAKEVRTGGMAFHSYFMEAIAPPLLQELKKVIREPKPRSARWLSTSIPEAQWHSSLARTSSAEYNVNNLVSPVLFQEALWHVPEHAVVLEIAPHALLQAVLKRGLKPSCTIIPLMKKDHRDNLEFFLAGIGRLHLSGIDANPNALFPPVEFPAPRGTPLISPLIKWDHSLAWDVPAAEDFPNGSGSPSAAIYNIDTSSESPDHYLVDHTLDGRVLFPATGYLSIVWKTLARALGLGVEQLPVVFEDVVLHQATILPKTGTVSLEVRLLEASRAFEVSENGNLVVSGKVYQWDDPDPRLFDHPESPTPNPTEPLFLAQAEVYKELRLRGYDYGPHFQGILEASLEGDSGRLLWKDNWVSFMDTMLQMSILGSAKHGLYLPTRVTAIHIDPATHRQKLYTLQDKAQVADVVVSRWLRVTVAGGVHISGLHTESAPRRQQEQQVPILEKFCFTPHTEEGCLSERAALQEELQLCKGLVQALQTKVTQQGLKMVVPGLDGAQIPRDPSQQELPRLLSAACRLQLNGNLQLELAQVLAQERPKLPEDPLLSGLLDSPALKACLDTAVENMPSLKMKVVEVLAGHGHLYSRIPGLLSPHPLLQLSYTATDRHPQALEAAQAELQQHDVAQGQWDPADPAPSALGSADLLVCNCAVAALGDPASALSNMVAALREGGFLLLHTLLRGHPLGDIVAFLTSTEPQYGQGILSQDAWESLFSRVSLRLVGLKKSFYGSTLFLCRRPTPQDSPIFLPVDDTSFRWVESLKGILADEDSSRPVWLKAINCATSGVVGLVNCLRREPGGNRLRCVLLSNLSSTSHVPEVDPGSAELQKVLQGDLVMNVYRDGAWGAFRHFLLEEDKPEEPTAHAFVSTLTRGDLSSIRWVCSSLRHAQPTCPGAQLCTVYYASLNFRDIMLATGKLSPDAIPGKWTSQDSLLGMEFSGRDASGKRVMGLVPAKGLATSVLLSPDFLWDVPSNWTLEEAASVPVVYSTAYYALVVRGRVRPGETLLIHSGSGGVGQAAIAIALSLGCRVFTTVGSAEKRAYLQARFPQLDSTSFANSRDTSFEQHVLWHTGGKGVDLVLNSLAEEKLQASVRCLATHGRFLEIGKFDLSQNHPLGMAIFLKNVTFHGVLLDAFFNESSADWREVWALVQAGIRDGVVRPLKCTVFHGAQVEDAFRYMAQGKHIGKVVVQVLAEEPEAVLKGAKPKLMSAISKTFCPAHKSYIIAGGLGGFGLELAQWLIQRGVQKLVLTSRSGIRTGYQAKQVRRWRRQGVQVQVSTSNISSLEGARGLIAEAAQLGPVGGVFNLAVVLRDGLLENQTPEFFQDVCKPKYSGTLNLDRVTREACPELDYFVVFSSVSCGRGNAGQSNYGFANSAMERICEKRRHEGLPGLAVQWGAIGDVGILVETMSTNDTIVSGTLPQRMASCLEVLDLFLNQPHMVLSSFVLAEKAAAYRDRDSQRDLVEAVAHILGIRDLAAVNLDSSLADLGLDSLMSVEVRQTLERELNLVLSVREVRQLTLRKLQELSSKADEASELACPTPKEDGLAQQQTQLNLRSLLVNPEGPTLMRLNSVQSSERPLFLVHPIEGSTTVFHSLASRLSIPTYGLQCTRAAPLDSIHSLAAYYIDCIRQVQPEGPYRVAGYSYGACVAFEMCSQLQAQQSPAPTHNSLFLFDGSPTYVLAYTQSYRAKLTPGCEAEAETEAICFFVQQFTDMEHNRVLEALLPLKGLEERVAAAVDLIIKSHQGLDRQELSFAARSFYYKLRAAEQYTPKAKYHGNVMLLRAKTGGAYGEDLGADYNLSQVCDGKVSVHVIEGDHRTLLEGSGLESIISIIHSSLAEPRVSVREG
T2 sequence (P41145 whole entry): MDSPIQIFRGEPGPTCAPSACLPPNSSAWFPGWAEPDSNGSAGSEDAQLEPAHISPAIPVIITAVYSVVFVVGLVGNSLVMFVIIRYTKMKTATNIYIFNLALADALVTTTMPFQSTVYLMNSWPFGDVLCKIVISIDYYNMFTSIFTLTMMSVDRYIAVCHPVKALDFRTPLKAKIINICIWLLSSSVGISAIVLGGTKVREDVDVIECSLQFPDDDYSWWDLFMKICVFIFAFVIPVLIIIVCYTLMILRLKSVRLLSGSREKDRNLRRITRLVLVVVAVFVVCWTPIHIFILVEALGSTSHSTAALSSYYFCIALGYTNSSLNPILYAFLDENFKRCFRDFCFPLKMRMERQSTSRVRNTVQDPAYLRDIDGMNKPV
Dual specificity protein phosphatase 3, sequence (P51452 whole entry): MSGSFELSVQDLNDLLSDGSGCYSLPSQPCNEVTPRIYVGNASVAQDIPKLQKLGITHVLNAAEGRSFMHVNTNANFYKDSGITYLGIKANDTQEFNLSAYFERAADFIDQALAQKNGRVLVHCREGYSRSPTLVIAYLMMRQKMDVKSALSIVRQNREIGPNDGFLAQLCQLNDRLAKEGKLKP
Mucolipin-3, sequence (Q8TDD5 whole entry): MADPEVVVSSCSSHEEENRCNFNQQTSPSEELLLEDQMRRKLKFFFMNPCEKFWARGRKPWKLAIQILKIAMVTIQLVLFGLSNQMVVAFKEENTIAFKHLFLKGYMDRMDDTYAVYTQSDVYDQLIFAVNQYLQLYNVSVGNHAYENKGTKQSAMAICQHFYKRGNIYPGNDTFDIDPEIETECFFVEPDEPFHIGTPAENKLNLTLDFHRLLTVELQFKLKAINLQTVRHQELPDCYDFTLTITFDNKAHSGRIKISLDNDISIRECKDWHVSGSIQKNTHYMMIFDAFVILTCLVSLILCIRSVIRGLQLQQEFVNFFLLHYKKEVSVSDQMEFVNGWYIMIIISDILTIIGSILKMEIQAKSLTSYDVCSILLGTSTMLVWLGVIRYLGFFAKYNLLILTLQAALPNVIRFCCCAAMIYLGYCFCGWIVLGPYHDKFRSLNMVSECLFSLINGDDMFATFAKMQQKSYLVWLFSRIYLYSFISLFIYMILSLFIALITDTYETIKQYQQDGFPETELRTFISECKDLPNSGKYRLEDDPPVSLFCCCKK
Mu-type opioid receptor, sequence (P35372 whole entry, the tested form may be a part): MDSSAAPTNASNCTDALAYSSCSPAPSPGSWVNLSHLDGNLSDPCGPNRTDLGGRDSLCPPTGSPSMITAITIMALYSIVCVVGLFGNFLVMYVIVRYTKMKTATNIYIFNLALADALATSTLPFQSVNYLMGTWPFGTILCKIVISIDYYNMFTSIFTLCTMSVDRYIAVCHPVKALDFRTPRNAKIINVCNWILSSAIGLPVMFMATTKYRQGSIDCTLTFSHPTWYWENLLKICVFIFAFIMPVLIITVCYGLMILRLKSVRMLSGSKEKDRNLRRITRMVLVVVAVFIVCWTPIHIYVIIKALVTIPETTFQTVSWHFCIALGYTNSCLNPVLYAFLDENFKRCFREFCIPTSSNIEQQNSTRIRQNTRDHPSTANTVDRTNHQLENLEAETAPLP
Delta-type opioid receptor, sequence (P41143 whole entry): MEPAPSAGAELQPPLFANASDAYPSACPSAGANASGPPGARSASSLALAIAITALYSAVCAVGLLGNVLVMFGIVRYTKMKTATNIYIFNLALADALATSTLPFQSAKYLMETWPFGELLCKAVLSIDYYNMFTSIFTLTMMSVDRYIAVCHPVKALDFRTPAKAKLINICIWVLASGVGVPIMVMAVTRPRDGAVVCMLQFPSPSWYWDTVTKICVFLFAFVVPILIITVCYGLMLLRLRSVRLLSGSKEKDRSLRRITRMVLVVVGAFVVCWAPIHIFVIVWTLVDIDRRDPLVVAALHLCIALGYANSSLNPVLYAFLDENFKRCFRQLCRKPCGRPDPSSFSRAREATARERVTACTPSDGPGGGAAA

SMILES: Fc1ccc(CNC(=S)c2ccc(Br)cc2)cc1C(F)(F)F
IC50 [1]: 19.3 µM (active)
IC50 [2]: 23.4 µM (active)

IC50 [3]: > 32 µM (inactive)
IC50 [4]: 2.65 µM (active)
IC50 [5]: 0.49 µM (active)
IC50 (Mu-type opioid receptor): 10.8 µM (inactive)
SMILES: COc1ccc(N2CCN(CCCNC(=O)Cn3c(=O)c4cccn4c4cccnc43)CC2)c(OC)c1

IC50 [6]: > 100 µM (inactive)
IC50 (Fatty acid synthase [7]): 7.79 µM (active)
IC50 [8]: > 100 µM (inactive)
IC50 (Fatty acid synthase [9]): 9.39 µM (active)
SMILES: Cc1cccn2c(=O)c(/C=C(\C#N)C(N)=O)c(N3CCN(Cc4ccc5c(c4)OCO5)CC3)nc12

SMILES: CCOCC(=O)Nc1ccc(S(=O)(=O)N2CCC(c3nc4ccccc4[nH]3)CC2)cc1
EC50 (Integrin alpha-L): 0.246 µM (active)
EC50 (T-cell): 1.37 µM (active)
EC50 (cells [10]): > 350 µM (not active)
EC50 (cells [11]): > 350 µM (not active)

SMILES: O=C(Cc1ccc(Cl)cc1)Nc1ncc([N+](=O)[O-])s1
EC50 (HEK293 [12]): 4.23 µM (active)
EC50 (Mucolipin-3): > 29.9 µM (not active)
EC50 [13]: > 60 µM (inconclusive)
IC50 (HEK293 [14]): 10.9 µM (inactive)
IC50 [15]: < 0.4 µM (not active)
EC50 (Ion channel NompC): > 29.9 µM (inactive)
IC50 (HEK293 [16]): 9.12 µM (active)
IC50 (HEK293 [17]): > 20 µM (inactive)
EC50 [18]: 0.589 µM (active)
